Literature values as cited in US20060211766A1, “Gelled immunomodulating topical compositions and a method of treating warts and other human papilloma virus skin infections” (priority 2004, published 2006).

System: rodents
Details: in rodents

**Q.** With `CC(C)=O` [Acetone] as the compound, how does the LD/50 read?
**A.** 10.7 mg per kilogram
